SMILES strings stand for the structures. Bounds are passed on as bounds.

The target of the assay is T1, SCD1 (Mus musculus, UniProt P13516).
T1 construct: Mouse liver microsomes, prepared from mice fed a high carbohydrate diet, were a source of the SCD; from tissue; host or cells: mouse liver microsomes (mice fed a high carbohydrate diet)
T1 sequence (P13516 1-355): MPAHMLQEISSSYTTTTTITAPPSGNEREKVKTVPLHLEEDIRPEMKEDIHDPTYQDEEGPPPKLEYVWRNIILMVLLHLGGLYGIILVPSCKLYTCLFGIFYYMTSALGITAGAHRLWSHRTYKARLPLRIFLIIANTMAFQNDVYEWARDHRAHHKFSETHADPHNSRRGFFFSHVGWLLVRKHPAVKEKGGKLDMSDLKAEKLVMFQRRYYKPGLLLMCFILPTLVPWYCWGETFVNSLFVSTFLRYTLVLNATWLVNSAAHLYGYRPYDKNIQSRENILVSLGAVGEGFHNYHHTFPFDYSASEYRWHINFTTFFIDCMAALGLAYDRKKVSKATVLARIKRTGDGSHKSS
The experiment in a line: SCD assay: release of tritiated water from desaturation of 9,10-3H-stearoyl CoA, mouse liver microsomes. Type of assay: biochemical. An excerpt:
Stearoyl CoA desaturase activity was monitored by a modification of the acyl carrier protein assay described by B. R. Talamo and K. Bloch in Anal. Biochem. 1968, 29, 300-304. The SCD assay monitors the release of tritiated water from the desaturation of 9,10-^3H-stearoyl CoA.
Mouse liver microsomes, prepared from mice fed a high carbohydrate diet, were a source of the SCD and cyt b5 and cyt b5 reductase, necessary accessory proteins for the coupled reaction. Reaction mixtures for compound titrations contained 50 mM Tris HCl pH 7.5, 100 mM NaCl, 0.165 mg/ml BSA, 2.4% DMSO, 1 mM NADH, 0.03% T-20, and 300 nM (9,10) ^3H-stearoyl CoA (Perkin-Elmer). Reactions were initiated upon the addition of 4 ug/ml SCD microsomes. Incubations were terminated after 25 minutes at room temperature with cold 6% TCA. After standing 10 minutes at 4 deg C., samples were centrifuged 15 minutes at 4000 rpm to pellet precipitated protein. Supernatants were added to microtiter plates containing suspensions of activated charcoal (Darco G-60, Fisher Scientific) and mixed by inversion. Plates were then centrifuged to separate ^3H—H2O product from charcoal-bound reactants. Supernatants were quantitated in a Perkin Elmer Topcount 384 after solubilization in ScintiSafe Plus 50% (Fisher Scientific).
Inhibition (%) of SCD activity by compounds was calculated according to the following formula: % Inhibition=100*[1−(CPMsample−CPMblank)/(CPMtotal−CPMblank)]
Usually IC50 stands for the midpoint of a concentration-inhibition curve. Regarding `Cc1cccc(CN2CCN(c3cc(=O)[nH]cn3)CC2)c1` [Example 1, 6-[4-(3-Methyl-benzyl)-piperazin-1-yl]-3H-pyrimidin-4-one], the IC50 is at most 1000 nM.

In turn, `Cc1ccccc1CN1CCN(c2cc(=O)[nH]cn2)CC1` [Example 2, 6-[4-(2-Methyl-benzyl)-piperazin-1-yl]-3H-pyrimidin-4-one] displayed an IC50 of at most 1000 nM.

Consider `Cc1cccc(C)c1CN1CCN(c2cc(=O)[nH]cn2)CC1` [Example 3, 6-[4-(2,6-Dimethyl-benzyl)-piperazin-1-yl]-3H-pyrimidin-4-one], for which the IC50 was at most 1000 nM.

Turning to `Cc1ccc(CN2CCN(c3cc(=O)[nH]cn3)CC2)c(C)c1` [Example 4, 6-[4-(2,4-Dimethyl-benzyl)-piperazin-1-yl]-3H-pyrimidin-4-one], the IC50 was at least 1100 nM.

In turn, `COc1ccc(CN2CCN(c3cc(=O)[nH]cn3)CC2)c(C)c1C` [Example 5, 6-[4-(4-Methoxy-2,3-dimethyl-benzyl)-piperazin-1-yl]-3H-pyrimidin-4-one] had an IC50 of at least 1100 nM.

Compound `COc1ccc(Br)cc1CN1CCN(c2cc(=O)[nH]cn2)CC1` [Example 6, 6-[4-(5-Bromo-2-methoxy-benzyl)-piperazin-1-yl]-3H-pyrimidin-4-one] showed an IC50 of at least 1100 nM.

Compound `COc1cc(Br)cc(CN2CCN(c3cc(=O)[nH]cn3)CC2)c1O` [Example 7, 6-[4-(5-Bromo-2-hydroxy-3-methoxy-benzyl)-piperazin-1-yl]-3H -pyrimidin-4-one] displayed an IC50 of at most 1000 nM.

Regarding `O=c1cc(N2CCN(Cc3ccccc3C(F)(F)F)CC2)nc[nH]1` [Example 8, 6-[4-(2-Trifluoromethyl-benzyl)-piperazin-1-yl]-3H -pyrimidin-4-one], the IC50 was at most 1000 nM.

`O=c1cc(N2CCN(Cc3cc(C(F)(F)F)ccc3C(F)(F)F)CC2)nc[nH]1` [Example 9, 6-[4-(2,5-Bis-trifluoromethyl-benzyl)-piperazin-1-yl]-3H -pyrimidin-4-one] registered a half-maximal inhibitory concentration (IC50) of at most 1000 nM.

As to `N#Cc1cccc(CN2CCN(c3cc(=O)[nH]cn3)CC2)c1` [Example 10, 3-[4-(6-Oxo-1,6-dihydro-pyrimidin-4-yl)-piperazin-1-ylmethyl]-benzonitrile], the IC50 was at least 1100 nM.

`N#Cc1cc(CN2CCN(c3cc(=O)[nH]cn3)CC2)ccc1F` [Example 11, 2-Fluoro-5-[4-(6-oxo-1,6-dihydro-pyrimidin-4-yl) -piperazin-1-ylmethyl]-benzo-nitrile] displayed an IC50 of at most 1000 nM.

In turn, `O=c1cc(N2CCN(Cc3cccc(Cl)c3)CC2)nc[nH]1` [Example 12, 6-[4-(3-Chloro-benzyl)-piperazin-1-yl]-3H-pyrimidin-4-one] yielded an IC50 of at most 1000 nM.

Consider `O=c1cc(N2CCN(Cc3cccc(Br)c3)CC2)nc[nH]1` [Example 13, 6-[4-(3-Bromo-benzyl)-piperazin-1-yl]-3H-pyrimidin-4-one], for which the half-maximal inhibitory concentration (IC50) was at most 1000 nM.

Regarding `O=c1cc(N2CCN(Cc3c(Cl)cccc3Cl)CC2)nc[nH]1` [Example 14, 6-[4-(2,6-Dichloro-benzyl)-piperazin-1-yl]-3H-pyrimidin-4-one], the IC50 is at least 1100 nM.

In turn, `O=c1cc(N2CCN(Cc3ccc(Cl)c(Cl)c3)CC2)nc[nH]1` [Example 15, 6-[4-(3,4-Dichloro-benzyl)-piperazin-1-yl]-3H-pyrimidin-4-one] came in with a half-maximal inhibitory concentration (IC50) of at most 1000 nM.

For `O=c1cc(N2CCN(Cc3c(Cl)ccc(Cl)c3Cl)CC2)nc[nH]1` [Example 16, 6-[4-(2,3,6-Trichloro-benzyl)-piperazin-1-yl]-3H-pyrimidin-4-one], the IC50 is at most 1000 nM.

Regarding `O=c1cc(N2CCN(Cc3cccc(Cl)c3Cl)CC2)nc[nH]1` [Example 17, 6-[4-(2,3-Dichloro-benzyl)-piperazin-1-yl]-3H-pyrimidin-4-one], the IC50 is at most 1000 nM.

In the case of `O=c1cc(N2CCN(Cc3ccccc3Br)CC2)nc[nH]1` [Example 18, 6-[4-(2-Bromo-benzyl)-piperazin-1-yl]-3H-pyrimidin-4-one], the IC50 is at most 1000 nM.

`O=c1cc(N2CCN(Cc3cc(Br)ccc3F)CC2)nc[nH]1` [Example 19, 6-[4-(5-Bromo-2-fluoro-benzyl)-piperazin-1-yl]-3H -pyrimidin-4-one] came in with an IC50 of at least 1100 nM.

`O=c1cc(N2CCN(Cc3cc(F)ccc3Br)CC2)nc[nH]1` [Example 20, 6-[4-(2-Bromo-5-fluoro-benzyl)-piperazin-1-yl]-3H -pyrimidin-4-one] displayed an IC50 of at most 1000 nM.

Regarding `O=c1cc(N2CCN(Cc3ccc(F)c(F)c3)CC2)nc[nH]1` [Example 21, 6-[4-(3,4-Difluoro-benzyl)-piperazin-1-yl]-3H-pyrimidin-4-one], the IC50 is at most 1000 nM.

As to `O=c1cc(N2CCN(Cc3ccc(F)c(Cl)c3)CC2)nc[nH]1` [Example 22, 6-[4-(3-Chloro-4-fluoro-benzyl)-piperazin-1-yl]-3H -pyrimidin-4-one], the IC50 is at most 1000 nM.

`O=c1cc(N2CCN(Cc3cc(C(F)(F)F)ccc3Cl)CC2)nc[nH]1` [Example 23, 6-[4-(2-Chloro-5-trifluoromethyl-benzyl)-piperazin-1-yl]-3H-pyrimidin-4-one] yielded an IC50 of at least 1100 nM.

`O=c1cc(N2CCN(Cc3cc(Cl)cc(Cl)c3O)CC2)nc[nH]1` [Example 24, 6-[4-(3,5-Dichloro-2-hydroxy-benzyl)-piperazin-1-yl]-3H-pyrimidin-4-one] had an IC50 of at most 1000 nM.

Regarding `O=c1cc(N2CCN(Cc3cc(Br)ccc3O)CC2)nc[nH]1` [Example 25, 6-[4-(5-Bromo-2-hydroxy-benzyl)-piperazin-1-yl]-3H -pyrimidin-4-one], the IC50 was at most 1000 nM.

Take `O=c1cc(N2CCN(Cc3cccc([N+](=O)[O-])c3)CC2)nc[nH]1` [Example 26, 6-[4-(3-Nitro-benzyl)-piperazin-1-yl]-3H-pyrimidin-4-one]: the IC50 is at least 1100 nM.

Compound `O=c1cc(N2CCN(Cc3ccccc3[N+](=O)[O-])CC2)nc[nH]1` [Example 27, 6-[4-(2-Nitro-benzyl)-piperazin-1-yl]-3H-pyrimidin-4-one] yielded an IC50 of at most 1000 nM.

Consider `O=c1cc(N2CCN(Cc3cc(Cl)ccc3[N+](=O)[O-])CC2)nc[nH]1` [Example 28, 6-[4-(5-Chloro-2-nitro-benzyl)-piperazin-1-yl]-3H -pyrimidin-4-one], for which the half-inhibitory concentration (IC50) was at most 1000 nM.

Take `O=c1cc(N2CCN(Cc3cc([N+](=O)[O-])ccc3O)CC2)nc[nH]1` [Example 29, 6-[4-(2-Hydroxy-5-nitro-benzyl)-piperazin-1-yl]-3H -pyrimidin-4-one]: the IC50 is at most 1000 nM.

Take `O=c1cc(N2CCN(Cc3ccccc3O)CC2)nc[nH]1` [Example 30, 6-[4-(2-Hydroxy-benzyl)-piperazin-1-yl]-3H-pyrimidin-4-one]: the IC50 was at least 1100 nM.

`O=c1cc(N2CCN(Cc3cc(OC(F)(F)F)ccc3O)CC2)nc[nH]1` [Example 31, 6-[4-(2-Hydroxy-5-trifluoromethoxy-benzyl)-piperazin-1-yl]-3H -pyrimidin-4-one] had an IC50 of at most 1000 nM.

Compound `Cc1c(Br)cccc1CN1CCN(c2cc(=O)[nH]cn2)CC1` [Example 35, 6-[4-(3-Bromo-2-methyl-benzyl)-piperazin-1-yl]-3H -pyrimidin-4-one] returned an IC50 of at most 1000 nM.

As for `O=c1cc(N2CCN(Cc3ccccc3-c3ccccc3)CC2)nc[nH]1` [Example 36, 6-(4-Biphenyl-2-ylmethyl-piperazin-1-yl)-3H-pyrimidin-4-one], the IC50 is at least 1100 nM.

Compound `O=c1cc(N2CCN(Cc3cccc4c3OCO4)CC2)nc[nH]1` [Example 37, 6-(4-Benzo[1,3]dioxol-4-ylmethyl-piperazin-1-yl)-3H -pyrimidin-4-one] registered an IC50 of at least 1100 nM.

`Cc1cccc(CN2CCN(c3cc(=O)[nH]cn3)CC2)c1O` [Example 38, 6-[4-(2-Hydroxy-3-methyl-benzyl)-piperazin-1-yl]-3H -pyrimidin-4-one]: the IC50 was at most 1000 nM.

`Cc1ccc(O)c(CN2CCN(c3cc(=O)[nH]cn3)CC2)c1` [Example 39, 6-[4-(2-Hydroxy-5-methyl-benzyl)-piperazin-1-yl]-3H -pyrimidin-4-one]: the IC50 was at most 1000 nM.

As for `C=CCc1cccc(CN2CCN(c3cc(=O)[nH]cn3)CC2)c1O` [Example 40, 6-[4-(3-Allyl-2-hydroxy-benzyl)-piperazin-1-yl]-3H -pyrimidin-4-one], the IC50 was at most 1000 nM.

`CC(C)(C)c1cccc(CN2CCN(c3cc(=O)[nH]cn3)CC2)c1O` [Example 41, 6-[4-(3-tert-Butyl-2-hydroxy-benzyl)-piperazin-1-yl]-3H-pyrimidin-4-one] yielded an IC50 of at most 1000 nM.

`O=c1cc(N2CCN(Cc3cccc(F)c3O)CC2)nc[nH]1` [Example 42, 6-[4-(3-Fluoro-2-hydroxy-benzyl)-piperazin-1-yl]-3H -pyrimidin-4-one] came in with a concentration for half-maximal inhibition (IC50) of at most 1000 nM.

The record behind these values is US7652013B2, “Inhibitors of stearoyl-CoA desaturase” (Hoffman-La Roche Inc., priority 2007, dated 2010).
